According to patent US9439906B2, “Dosing regimen associated with long acting injectable paliperidone esters” (Janssen Pharmaceutica NV, priority 2007, dated 2016):
pKd: −log10 of the molar value.

Target: D2 receptor (Homo sapiens, UniProt P14416)
Assay: PET central D2 occupancy studies SWE-1 and SIV-101
Format: in vivo
Excerpt: It has been empirically derived and is currently widely excepted that 65-70% occupancy is needed for antipsychotics to show clinical efficacy (Farde et al.), i.e. improvement on the PANSS scale. A too high occupancy (80-85%) will typically increase the risk to develop EPS. In order to determine the central D2 occupancy, PET trials in human healthy volunteers are typically performed.

D2 receptor, sequence (P14416 whole entry): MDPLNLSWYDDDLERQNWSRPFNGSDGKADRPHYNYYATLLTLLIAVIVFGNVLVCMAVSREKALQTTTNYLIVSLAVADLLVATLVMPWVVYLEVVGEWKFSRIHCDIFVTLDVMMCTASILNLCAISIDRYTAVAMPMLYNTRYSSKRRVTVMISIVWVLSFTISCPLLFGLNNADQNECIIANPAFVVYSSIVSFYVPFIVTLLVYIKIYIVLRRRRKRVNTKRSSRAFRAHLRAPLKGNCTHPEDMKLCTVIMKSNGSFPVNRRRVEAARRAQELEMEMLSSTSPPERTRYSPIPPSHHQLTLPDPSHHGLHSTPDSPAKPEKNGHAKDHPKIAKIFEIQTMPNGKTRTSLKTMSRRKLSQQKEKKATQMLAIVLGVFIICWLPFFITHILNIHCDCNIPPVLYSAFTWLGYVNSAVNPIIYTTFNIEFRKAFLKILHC

Cc1nc2n(c(=O)c1CCN1CCC(c3noc4cc(F)ccc34)CC1)CCCC2O (centres unmarked) [paliperidone, 9-hydroxy-risperidone]
pKd: 7.82 to 7.99
exposure range for efficacy without an increased risk to develop EPS (target exposure range) (calculated using the 65-85% D2 occupancy window): 7.5 to 40 ng/mL
